# Like-named read-outs stand apart in the source and are kept apart here.
# Tests used:
# Bi. longum = assay: MIC against human normal gut microbiota: Bifidobacterium longum; assay type: cell-based; conditions: Bifidobacterium longum; Bi. longum HM 848; read-out: MIC
# Excerpt: (§1) The activity of the selected lactones against the human gut microbiota was also examined. Microbiota interfere with C. difficile's ability to colonize the gastrointestinal tract and subsequently cause infection. Many antibiotics inhibit/kill the endogenous microflora, which permits enhanced colonization by C. difficile and infection. Three different bacterial species that are present in the gut microflora were used in this experiment; Bifidobacterium (anaerobic Gram-positive bacteria), Bacteroides (anaerobic Gram-negative bacteria) and Lactobacillus (microaerophilic Gram-positive bacteria). Ideal compounds/drugs are those with selective antibacterial activity against C. difficile so as to protect the indigenous microflora present in the GI tract from being damaged/killed (which will exacerbate infections caused by C. difficile).
# (§2) Bifidobacterium and Bacteroides were first grown for 48 hours at 37° C., anaerobically, using brain heart infusion supplemented (BHIS) agar (brain heart infusion agar supplemented with hemin, vitamin K and L-cysteine). Lactobacillus was cultivated on MRS agar and incubated in the presence of 5% CO2 for 48 hours at 37° C. Each bacterium was suspended in phosphate-buffered saline (PBS) to achieve 0.5 McFarland standard and subsequently diluted in brain heart infusion supplemented broth (for Bifidobacterium and Bacteroides) or in MRS broth (for Lactobacillus) to achieve a bacterial inoculum of approximately 5×10^5 CFU/mL. Bacteria were then seeded in 96-well plates containing serial dilutions of the compounds and incubated for 48 hours. MICs reported in Table 4 are the minimum concentration of compound/control drug that inhibited the visual growth of bacteria.
# L. reuteri = assay: MIC against human normal gut microbiota: L. reuteri; assay type: cell-based, Lactobacillus reuteri; conditions: Limosilactobacillus reuteri; L. reuteri HM 120; read-out: MIC
# Excerpt: as §1, §2
# L. casei = assay: MIC against human normal gut microbiota: L. casei; assay type: cell-based, Lactobacillus casei; conditions: Lacticaseibacillus casei; L. casei HM 334; read-out: MIC
# Excerpt: as §1, §2
# Bi. breve = assay: MIC against human normal gut microbiota: Bifidobacterium breve; assay type: cell-based; conditions: Bifidobacterium breve; Bi. breve HM 856; read-out: MIC
# Excerpt: as §1, §2
# [1] = test system: clinically important Clostridioides difficile strains; assay: MIC against clinically important Clostridioides difficile strains; assay type: cell-based; conditions: Clostridioides difficile, read-out: MIC
# Experimental: (§3) The antibacterial activity of compounds 48, 50, 51, 61 and 85 against a panel of Clostridioides difficile strains was evaluated. A bacterial solution equivalent to 0.5 McFarland standard was prepared and diluted in brain heart infusion broth supplemented with hemin and vitamin K. Compounds and control drugs were added in the first row of 96-well plates and serially diluted with media containing bacteria (to achieve a concentration gradient ranging from 128 to 1 μg/mL). Plates were then incubated anaerobically at […] for 48 hours.
# Ba. fragilis = assay: MIC against human normal gut microbiota: Bacteroides fragilis; assay type: cell-based
# Excerpt: as §1, §2
# Clostridioides difficile [2] = conditions: cited from earlier work
# [3] = test system: hypervirulent Clostridioides difficile strains; assay: MIC against hypervirulent Clostridioides difficile strains; assay type: cell-based
# Experimental: as §3
# L. gasseri = assay: MIC against human normal gut microbiota: L. gasseri; assay type: cell-based, Lactobacillus gasseri; conditions: Lactobacillus gasseri; L. gasseri HM 407; read-out: MIC
# Excerpt: as §1, §2
# L. crispatus = assay: MIC against human normal gut microbiota: L. crispatus; assay type: cell-based, Lactobacillus crispatus; conditions: Lactobacillus crispatus, read-out: MIC
# Excerpt: as §1, §2
# Ba. dorsei = assay: MIC against human normal gut microbiota: Bacteroides dorsei; assay type: cell-based
# Excerpt: as §1, §2
# Clostridioides difficile [4] = assay: MIC by broth microdilution against Clostridioides difficile (Table 1); assay type: cell-based; conditions: Clostridioides difficile, BAA1870; anaerobic, 48 hours; strain BAA-1870; read-out: MIC Clostridioides difficile
# Experimental: Method: The minimum inhibitory concentration (MIC) of the compounds and control drugs, linezolid (antibiotic), vancomycin (antibiotic), 5-fluorocytosine (5-FC, antifungal drug), and fluconazole (antifungal drug) was determined using the broth microdilution method according to the guidelines outlined by the Clinical and Laboratory Standards Institute (CLSI) against clinically relevant bacterial (methicillin-resistant Staphylococcus aureus (MRSA), vancomycin-resistant Enterococcus faecalis (VRE), vancomycin-resistant Enterococcus faecium (VRE), Clostridioides difficile and Escherichia coli) and fungal (Candida albicans) strains. A solution equivalent to 0.5 McFarland standard was prepared from each strain and diluted in cation-adjusted Mueller-Hinton broth (for S. aureus and E. coli), tryptone soy broth (for E. faecalis), or brain heart infusion broth (for E. faecium) to achieve a bacterial inoculum of about 5×10^5 CFU/mL. C. difficile strains were cultured in brain heart infusion broth supplemented with hemin and vitamin K. C. albicans was diluted in RPMI medium supplemented with 3-(N-morpholino) propanesulfonic acid to achieve a fungal concentration of about 1.5×10^3 CFU/mL. Compounds and control drugs were added in the first row of the 96-well plates and diluted with media containing bacteria (to achieve a concentration gradient ranging from 128 to 1 μg/mL). For MRSA, VRE, and E. coli strains, plates were then incubated aerobically at 37° C. for at least 18 hours. C. albicans was incubated aerobically at 37° C. for 24 hours. Plates containing C. difficile were incubated anaerobically at […] for 48 hours.
# normal gut microflora = assay: Activity against normal human gut microflora (panel statement); assay type: cell-based
# Excerpt: as §1
# Bifidobacterium and Bacteroides were first grown for 48 hours at 37° C., anaerobically, using brain heart infusion supplemented (BHIS) agar (brain heart infusion agar supplemented with hemin, vitamin K and L-cysteine). Lactobacillus was cultivated on MRS agar and incubated in the presence of 5% CO2 for 48 hours at 37° C. […]
# [5] = Bacteroides fragilis, Ba. fragilis HM 709, read-out: MIC
# [6] = Clostridioides difficile, CD strain 81
# [7] = Clostridioides difficile, CD strain 82
# [8] = Clostridioides difficile, CD strain 83
# [9] = Clostridioides difficile, CD strain 85
# [10] = Clostridioides difficile, CD strain 86
# [11] = Clostridioides difficile, CD strain 87
# [12] = Clostridioides difficile, CD strain 90
# [13] = Clostridioides difficile, CD strain 49279
# [14] = Clostridioides difficile, CD strain 49287
# [15] = Clostridioides difficile, CD strain 49291
# [16] = Bacteroides, Ba. dorsei HM 29, read-out: MIC
SMILES,MIC (Bi. longum) [µg/mL],MIC (L. reuteri) [µg/mL],MIC (L. casei) [µg/mL],MIC (Bi. breve) [µg/mL],MIC ([1]; CD strain 16) [µg/mL],MIC ([1]; CD strain 18) [µg/mL],MIC ([1]; CD strain 19) [µg/mL],MIC ([1]; CD strain 1801) [µg/mL],MIC ([1]; CD strain 43255) [µg/mL],MIC ([1]; CD strain P6) [µg/mL],MIC ([1]; CD strain P7) [µg/mL],MIC ([1]; CD strain P13) [µg/mL],MIC ([1]; CD strain P19) [µg/mL],MIC (Ba. fragilis; Ba. fragilis HM 710) [µg/mL],MIC (Ba. fragilis; Ba. fragilis HM 711) [µg/mL],MIC (Ba. fragilis; Ba. fragilis HM 714) [µg/mL],MIC (Ba. fragilis; [5]) [µg/mL],"MIC [3, 6] [µg/mL]","MIC [3, 7] [µg/mL]","MIC [3, 8] [µg/mL]",other results
"CCc1c(Cl)c(O)c(Cl)c(O)c1C(=O)O[C@H]1[C@H](O)[C@H](OC)[C@H](OC/C2=C\C=C\C[C@H](O)/C(C)=C/[C@H](CC)[C@@H](O[C@@H]3OC(C)(C)[C@@H](OC(=O)C(C)C)[C@H](O)[C@@H]3O)/C(C)=C/C(C)=C/C[C@@H]([C@@H](C)O)OC2=O)O[C@@H]1C [Fidaxomicin, fidaxomicin, reference compound]",32,128,2,> 128,0.015,≤ 0.007,0.015,0.015,0.03,≤ 0.007,≤ 0.007,≤ 0.007,0.03,>128,>128,>128,> 128,0.03,0.3,0.015,"recurrence rate (Clostridioides difficile [2]; infections involving the hypervirulent strains): 24%; recurrence rate (Clostridioides difficile [2]; patients treated for an episode of recurrent C. difficile-associated diarrhea): 20%; MIC ([3]; CD strain 84): 0/03; MIC [3, 9]: 0.03 µg/mL; MIC [3, 10]: 0.06 µg/mL; MIC [3, 11]: 0.015 µg/mL; MIC [3, 12]: ≤ 0.007 µg/mL; MIC [3, 13]: ≤ 0.007 µg/mL; MIC [3, 14]: ≤ 0.007 µg/mL; MIC [3, 15]: ≤ 0.007 µg/mL; MIC (L. gasseri): 1 µg/mL; MIC (L. crispatus; L. crispatus HM 375): ≤ 1 µg/mL; MIC (L. crispatus; L. crispatus HM 421): 2 µg/mL; MIC (Ba. dorsei; Ba. dorsei HM 717): >128 µg/mL; MIC (Ba. dorsei; [16]): > 128 µg/mL"
"Cc1ncc([N+](=O)[O-])n1CCO [Metronidazole, reference compound]",64,> 128,> 128,≤ 1,0.25,≤ 0.06,0.125,0.125,0.125,≤ 0.06,0.25,≤ 0.06,0.25,≤1,≤1,≤1,≤ 1,0.125,0.25,0.25,"MIC (Clostridioides difficile [4]): 0.25 µg/mL; MIC ([3]; Clostridioides difficile, CD strain 84): 0.25 µg/mL; MIC [3, 9]: 0.25 µg/mL; MIC [3, 10]: 0.125 µg/mL; MIC [3, 11]: 0.125 µg/mL; MIC [3, 12]: 0.125 µg/mL; MIC [3, 13]: 0.125 µg/mL; MIC [3, 14]: ≤ 0.06 µg/mL; MIC [3, 15]: 0.125 µg/mL; MIC (L. gasseri): > 128 µg/mL; MIC (L. crispatus; L. crispatus HM 375): > 128 µg/mL; MIC (L. crispatus; L. crispatus HM 421): > 128 µg/mL; MIC (Ba. dorsei; Ba. dorsei HM 717): ≤1 µg/mL; MIC (Ba. dorsei; [16]): ≤ 1 µg/mL; inhibition of bacteria of the normal gut microflora (normal gut microflora): inhibited growth of species of Bacteroides and Bifidobacterium"

# — US20250195490A1, “ALPHA-METHYLENE AND AMINOMETHYL LACTONES AND LACTAMS FOR TREATMENT OF CLOSTRIDIOIDES DIFFICILE INFECTION (CDI)” (Purdue Research Foundation, priority 2022, published 2025)
